Results on 8 molecules are retold here after ChEMBL document CHEMBL1201862, “PubChem BioAssay data set” (2004).

What all share (experiment): NCI tumour cell line growth inhibition, 48 h
Experiment [1] deals with A498.
For experiment [2], the system named is A549.
In experiment [3] the test system is CAKI-1.
Experiment [4] has as its system CCRF-CEM.
The test system of experiment [5] is EKVX.
For experiment [6], the system named is HCT-15.
Experiment [7] concerns HOP-92.
Experiment [8] relates to K562.
Experiment [9] has as its system M19-MEL.
Experiment [10] deals with NCI-H522.
Experiment [11] has as its system OVCAR-3.
Experiment [12] has as its system OVCAR-4.
Experiment [13] concerns OVCAR-8.
Experiment [14] concerns RPMI-8226.
In experiment [15] the test system is SF-539.
Experiment [16] concerns SNB-19.
Experiment [17] relates to UACC-62.
In experiment [18] the test system is BT-549.
For experiment [19], the system named is MDA-N.
In experiment [20] the test system is PC-3.

SMILES strings stand for the structures.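 Five compound concentrations were applied to cells in 96-well plates for 48 hours; endpoints were derived by simple linear interpolation of the resulting dose-response curve. At the GI50, growth is halved.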 Activity calls are given as the source filed them. No stated cut-off is given here; in the data, active = GI50 up to about 1.1 µM and inactive = higher.

Consider `CC1(c2ccccc2Cl)C(C#N)C(=O)NC(=O)C1C#N` (stereo unspecified), for which the GI50 was 36.4 µM (inactive) in [1]; 45.5 µM (inactive) in experiment [2]; > 100 µM (inactive) in experiment [3]; 30.1 µM (inactive) in experiment [4]; 24.5 µM (inactive) in [5]; > 100 µM in [6]. Further, the GI50 is 23.5 µM (inactive) in experiment [7]; 27.4 µM (inactive) in experiment [8]; 35.3 µM (inactive) in experiment [9]; 20.8 µM (inactive) in experiment [10]; 17.8 µM (inactive) in experiment [11]; 33.3 µM (inactive) in [12]. Moreover, the GI50 in experiment [13] was 35.6 µM (inactive); in [14] it was 22.7 µM (inactive); in experiment [15], 34.8 µM (inactive); in [16] it was 28.7 µM (inactive); in experiment [17], 33.6 µM (inactive).

With `COC1=CC(=O)C(O)=C(CC2(C)C(C)CCC3(C)C2CCCC3(C)C)C1=O` (stereo unspecified), the GI50 in [1] was 10.1 µM (inactive); in experiment [2], 2.99 µM (inactive); in [3], 3.34 µM (inactive); in experiment [4], 1.91 µM (inactive); in experiment [5], 5.83 µM (inactive); in experiment [6], 3.3 µM. Moreover, the GI50 is 2.38 µM (inactive) in experiment [7]; 2.7 µM (inactive) in experiment [8]; 2.16 µM (inactive) in [9]; 2.7 µM (inactive) in experiment [10]; 5.43 µM (inactive) in [11]; 4.18 µM (inactive) in experiment [12]. The GI50 was 4.57 µM (inactive) in [13]; 2.96 µM (inactive) in [14]; 2.84 µM (inactive) in experiment [15]; 3.58 µM (inactive) in experiment [16]; 2.04 µM (inactive) in experiment [17].

As for `O=C(COC(=O)c1cccc2c(=O)c3ccccc3[nH]c12)Nc1ccc(S(=O)(=O)Nc2ncccn2)cc1`, the GI50 in experiment [1] was 95.5 µM (inactive); in experiment [2] it was > 100 µM (inactive); in experiment [3], 79.3 µM (inactive); in experiment [4], 27.5 µM (inactive); in experiment [5], 64.1 µM (inactive); in experiment [6], > 100 µM. Moreover, the GI50 in experiment [7] is 15.6 µM (inactive); in [8], 38.5 µM (inactive); in experiment [9] it was 48.2 µM (inactive); in [10] it was 24.4 µM (inactive); in experiment [11], 22.6 µM (inactive); in [12], 59.2 µM (inactive). Also, the GI50 in experiment [13] was 35.8 µM (inactive); in experiment [14], 51.4 µM (inactive); in experiment [15], 20.5 µM (inactive); in experiment [16], 38.8 µM (inactive); in experiment [17], 20 µM (inactive).

For `C=CCC(C(=O)OC)C1(C(=O)OC)c2[nH]c3ccccc3c2CCN1Cc1ccccc1` (stereo unspecified), the GI50 in experiment [1] was 54.6 µM (inactive); in experiment [2] it was 58.9 µM (inactive); in [3], 66.8 µM (inactive); in experiment [4] it was 29.8 µM (inactive); in [5], > 100 µM (inactive); in experiment [6], > 100 µM. Moreover, the GI50 in experiment [7] is 23.4 µM (inactive); in experiment [8], > 10 µM (inactive); in experiment [9], > 100 µM (inactive); in [10] it was > 100 µM (inactive); in experiment [11], > 100 µM (inactive); in experiment [12], 20.2 µM (inactive). For the same molecule, the GI50 in [13] is 83.6 µM (inactive); in experiment [14], > 100 µM (inactive); in [15], > 100 µM (inactive); in [16], > 100 µM (inactive); in experiment [17], 74.6 µM (inactive).

For `CN1C(c2ccccc2)CC(=NOCc2ccccc2)CC1c1ccccc1` (stereo unspecified), the GI50 is 44.7 µM (inactive) in [1]; 20.7 µM (inactive) in experiment [2]; 16.9 µM (inactive) in [18]; 55 µM (inactive) in [3]; 11.6 µM (inactive) in experiment [4]; 41.3 µM (inactive) in experiment [5]. Besides, the GI50 in experiment [6] is 23.2 µM; in [7], 48.9 µM (inactive); in experiment [8], 13.8 µM (inactive); in experiment [9] it was > 100 µM (inactive); in experiment [19], 23.3 µM (inactive); in experiment [10], 21.8 µM (inactive). The GI50 is 29 µM (inactive) in experiment [11]; 22.5 µM (inactive) in experiment [12]; 21.5 µM (inactive) in experiment [13]; 24.7 µM (inactive) in experiment [20]; 37.2 µM (inactive) in experiment [14]; 36.9 µM (inactive) in experiment [15]. Also, the GI50 in [16] is 44.3 µM (inactive); in [17], 52.4 µM (inactive).

For the molecule `O=C(OCN1C(=O)C2C3C=CC(C2C1=O)C1C2C(=O)N(COC(=O)C4CCCN4)C(=O)C2C31)C1CCCN1` (stereo unspecified), the GI50 in [1] is > 100 µM (inactive); in [2], 62.5 µM (inactive); in [3], > 86.9 µM (inactive); in experiment [4], 21.8 µM (inactive); in experiment [5], > 100 µM (inactive); in experiment [6], 25 µM. The GI50 in [7] is > 100 µM (inactive); in experiment [8], > 67.9 µM (inactive); in experiment [9] it was > 77.8 µM (inactive); in [10], 78.3 µM (inactive); in experiment [11], > 100 µM (inactive); in experiment [12] it was > 58.3 µM (inactive). Besides, the GI50 in experiment [13] is 25.5 µM (inactive); in experiment [14], 24.8 µM (inactive); in experiment [15], 47.8 µM (inactive); in experiment [16], > 100 µM (inactive); in experiment [17] it was > 76.7 µM (inactive).

Regarding `Cc1ccc(S(=O)(=O)N(/N=C/C=C/c2ccccc2)c2nnc(-c3ccccc3)c(-c3ccccc3)n2)cc1`, the GI50 is 36.8 µM (inactive) in [1]; 16.9 µM (inactive) in [2]; 17.9 µM (inactive) in [3]; 21.9 µM (inactive) in [4]; 24.9 µM (inactive) in [5]; 25.6 µM in experiment [6]. In addition, the GI50 in experiment [7] is 19 µM (inactive); in [8], 15 µM (inactive); in [9] it was 28.1 µM (inactive); in experiment [10] it was 15.9 µM (inactive); in experiment [11], 20.1 µM (inactive); in [12], 9.82 µM (inactive). For the same molecule, the GI50 in [13] is 25.6 µM (inactive); in experiment [14], 11.3 µM (inactive); in experiment [15], 16.1 µM (inactive); in experiment [16] it was 71.9 µM (inactive); in [17] it was 26.7 µM (inactive).

Regarding `COc1c(C)c2c(c(O)c1C/C=C(\C)CCC(=O)O)C(=O)OC2` [MYCOPHENOLIC ACID], the GI50 in experiment [1] was > 100 µM (inactive); in experiment [2] it was 0.659 µM (active); in experiment [3] it was 0.805 µM (active); in experiment [4], 0.49 µM (active); in [5], > 100 µM (inactive); in experiment [6], 0.423 µM. Besides, the GI50 in experiment [7] is 4.68 µM (inactive); in experiment [8] it was 0.396 µM (active); in experiment [9], 1.28 µM (inactive); in experiment [19], 1.46 µM (inactive); in [10], 0.442 µM (active); in experiment [11], 2.91 µM (inactive). Further, the GI50 in [12] was > 21.8 µM (inactive); in [13] it was 1.08 µM (active); in [20] it was 1.1 µM (active); in [14], 1.7 µM (inactive); in experiment [15] it was 1.46 µM (inactive); in experiment [16], 0.706 µM (active). For the same molecule, the GI50 in experiment [17] was 0.881 µM (active).
